The values below come from patent US8608967B2, “Multiple stationary phase matrix and uses thereof” (The Board of Trustees of the University of Arkansas, priority 2011, dated 2013).

The first data set can be described thus: Dual-phase UHPLC-MS/MS profiling of warfarin and hydroxywarfarins in plasma of patients receiving warfarin. As to conditions: four plasma samples of patients receiving warfarin. On the procedure:
Human plasma samples were processed as described previously (Wikoff et al., Proc Natl Acad Sci, 2009, 106:3698). […] Following equilibration, ice cold 0.2% formic acid in H2O (190 μL) was added to each sample, followed by ice cold 0.2% formic acid in acetonitrile (1000 μL). Samples were allowed to precipitate at 4° C. for 30 minutes, followed by centrifugation (10 min at 16,000 g) in a microcentrifuge. The supernatant (1000 μL) was then transferred to a new vial and dried down in a speed vacuum concentrator. Plasma extracts were resolubilized (40 μL) in mobile phase (55% methanol, 45% H2O with 0.01% formic acid) maintaining a 1:1 ratio with the original volume of plasma.
Standard curves containing all hydroxywarfarins and deuterated internal standards were prepared in potassium phosphate (50 mM, pH 7.4) and analyzed in triplicate with the assay conditions described above. […] The limit of quantification (LOQ) was defined as 5 times the LOD. Metabolite concentrations calculated to be below the limit of quantification were reported as LOQ.
All samples were from males and are referred to as M61, […], […], and M80, respectively. Plasma samples were extracted as described above, and analyzed independently on three separate days.
Turning to `CC(=O)C[C@H](c1ccccc1)c1c(O)c2ccc(O)cc2oc1=O` [R7, R-7-hydroxywarfarin], the “presence of metabolite in human plasma (in words)” value (“presence of metabolite” below) is given as “observed in all four plasma samples”.
In the case of `CC(=O)CC(c1ccc(O)cc1)c1c(O)c2ccccc2oc1=O` (stereo not drawn) [4″-hydroxywarfarin], the “presence of metabolite” value is on record as “observed in some samples, but was below the limit of quantitation”.
As to `CC(=O)C(O)[C@H](c1ccccc1)c1c(O)c2ccccc2oc1=O` (single isomer, unassigned) [R10b], the “presence of metabolite” value is given as “major observed metabolites”.
Same read-out and setting: next, `CC(=O)C[C@@H](c1ccccc1)c1c(O)c2ccc(O)cc2oc1=O` [S7, S-7-hydroxywarfarin]: “major observed metabolites”.
Still for that read-out and setting: in the case of `CC(=O)CC(c1ccccc1)c1c(O)c2cccc(O)c2oc1=O` (stereo not drawn) [8-hydroxywarfarin] it was “below the limit of detection”; in that of `CC(=O)C(O)[C@@H](c1ccccc1)c1c(O)c2ccccc2oc1=O` (stereo partly drawn) [S10a], “detected but below the limit of quantitation”; in that of `CC(=O)C(O)[C@H](c1ccccc1)c1c(O)c2ccccc2oc1=O` (single isomer, unassigned) [R10a], “major observed metabolites”.

Staying with this data set, now noted: patients M61 and M75; 10-hydroxywarfarin derived from both R and S-warfarin.
In the case of `CC(=O)C(O)C(c1ccccc1)c1c(O)c2ccccc2oc1=O` (stereo not drawn) [10-hydroxywarfarin], the “total plasma concentration compared with S-7-hydroxywarfarin” value is recorded as “higher than S-7-hydroxywarfarin concentrations”.

The data set is the same for the next values; noted with them: patients M76 and M80.
Take `CC(=O)C[C@@H](c1ccccc1)c1c(O)c2ccc(O)cc2oc1=O` [S7, S-7-hydroxywarfarin]: the “most abundant metabolite in plasma” value is “the most abundant metabolite”.
